Results published in PubChem BioAssay AID330 (DTP/NCI, 2004).
Where “and” joins values, the source holds several entries; their conditions need not be identical. Identical values can stand only once. Inconclusive results and toxic doses are left out. Rule for the calls: active = survival T/C of 150% or more; inactive = T/C below 125% in these data. Square brackets hold non-standard residues; d marks the D form. Peptide text beside a SMILES is read from it. ξ: configuration not given here. ξN = NC(=O)CC(N)C(=O)O

Tested on: P388 leukemia ip, CD2F1 mice, survival T/C
Assay: NCI In Vivo Anticancer Drug Screen. Data for tumor model P388 Leukemia (intraperitoneal) in CD2F1 (CDF1) mice
Details: endpoint: median survival time, higher = longer survival
Procedure, shortened: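 Mice carrying the transplanted tumor received test compound or vehicle. Survival was recorded in each group, and the value is the treated-group measurement divided by that of the vehicle-treated control group.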

[1] = dose: 100.0 mg/kg/injection, schedule: Q01DX001 (ip), vehicle: saline with Tween-80
[2] = dose: 200.0 mg/kg/injection, schedule: Q01DX001 (ip), vehicle: saline with Tween-80
[3] = dose: 50.0 mg/kg/injection, schedule: Q01DX005 (ip), vehicle: Klucel (hydroxypropylcellulose) (HPC)
[4] = dose: 100.0 mg/kg/injection, schedule: Q01DX005 (ip), vehicle: Klucel (hydroxypropylcellulose) (HPC)
[5] = dose: 200.0 mg/kg/injection, schedule: Q01DX005 (ip), vehicle: Klucel (hydroxypropylcellulose) (HPC)
[6] = dose: 50.0 mg/kg/injection, schedule: Q01DX009 (ip), vehicle: Klucel (hydroxypropylcellulose) (HPC)
[7] = dose: 100.0 mg/kg/injection, schedule: Q01DX009 (ip), vehicle: Klucel (hydroxypropylcellulose) (HPC)
[8] = dose: 200.0 mg/kg/injection, schedule: Q01DX009 (ip), vehicle: Klucel (hydroxypropylcellulose) (HPC)
[9] = dose: 50.0 mg/kg/injection, schedule: Q01DX009 (ip), vehicle: saline with Tween-80
[10] = dose: 100.0 mg/kg/injection, schedule: Q01DX009 (ip), vehicle: saline with Tween-80
[11] = dose: 200.0 mg/kg/injection, schedule: Q01DX009 (ip), vehicle: saline with Tween-80
[12] = dose: 60.0 mg/kg/injection, schedule: Q01DX005 (ip), vehicle: saline with Tween-80
[13] = dose: 12.5 mg/kg/injection, schedule: Q01DX009 (ip), vehicle: saline
[14] = dose: 25.0 mg/kg/injection, schedule: Q01DX009 (ip), vehicle: saline
[15] = dose: 50.0 mg/kg/injection, schedule: Q01DX009 (ip), vehicle: saline
[16] = dose: 50.0 mg/kg/injection, schedule: Q01DX005 (ip), vehicle: saline with Tween-80
[17] = dose: 100.0 mg/kg/injection, schedule: Q01DX005 (ip), vehicle: saline with Tween-80
[18] = dose: 100.0 mg/kg/injection, schedule: Q04DX003 (ip), vehicle: Klucel (hydroxypropylcellulose) (HPC)
[19] = dose: 200.0 mg/kg/injection, schedule: Q04DX003 (ip), vehicle: Klucel (hydroxypropylcellulose) (HPC)

Measured: T/C

CCCCNC(=S)NNC(=O)CNC(c1ccc(OC)cc1)C(CC)c1ccc(OC)cc1 (centres undefined)
inactive: [1] 88 % of control | [2] 101 % of control

COc1ccc2c3c([nH]c2c1)[C@H]1C[C@H]2[C@H](C[C@@H](O)[C@H](OC)[C@H]2C(=O)O)CN1CC3
inactive: [3] 100 % of control | [4] 100 % of control | [5] 101 % of control

CC1(C)Cc2oc(=O)n(-c3ccccc3)c(=O)c2C1
inactive: [6] 100 % of control | [7] 102 % of control | [8] 100 % of control

CN(C)c1ccc(-c2nc3c4ccccc4c4ccccc4c3[nH]2)cc1
inactive: [9] 105 % of control | [10] 90 % of control | [11] 87 % of control

C/C(=N\NC(=S)N1CCN(C2CCCCC2)CC1)c1ccccn1
inactive: dose: 1.56 mg/kg/injection, schedule: Q01DX005 (ip), vehicle: saline with Tween-80 103 % of control | dose: 3.13 mg/kg/injection, schedule: Q01DX005 (ip), vehicle: saline with Tween-80 106 % of control | dose: 6.25 mg/kg/injection, schedule: Q01DX005 (ip), vehicle: saline with Tween-80 101 % of control and 87 % of control

O=C(O)c1ccc(NC(=S)NC(=O)c2cccc(Br)c2)cc1
inactive: [12] 91 % of control | dose: 120.0 mg/kg/injection, schedule: Q01DX005 (ip), vehicle: saline with Tween-80 86 % of control

Cc1cc(OC(=O)Nc2cc([N+](=O)[O-])ccc2C)c(Br)cc1Cl
inactive: [13] 98 % of control | [14] 93 % of control | [9] 117 % of control | [15] 100 % of control

CCCCCCCCCCCCOCC(O)Cn1cnc2c(N)ncnc21 (centres undefined)
inactive: [3] 98 % of control | [4] 94 % of control | [5] 94 % of control

O=[Se](=O)(O)O
inactive: dose: 1.88 mg/kg/injection, schedule: Q01DX005 (ip), vehicle: saline 103 % of control | dose: 3.75 mg/kg/injection, schedule: Q01DX005 (ip), vehicle: saline 109 % of control and 99 % of control | dose: 7.5 mg/kg/injection, schedule: Q01DX005 (ip), vehicle: saline 113 % of control and 101 % of control | dose: 15.0 mg/kg/injection, schedule: Q01DX005 (ip), vehicle: saline 86 % of control and 98 % of control

COC(=O)NC1=Nc2ccc(Cl)cc2NS1
inactive: dose: 12.5 mg/kg/injection, schedule: Q01DX005 (ip), vehicle: Klucel (hydroxypropylcellulose) (HPC) 102 % of control | dose: 25.0 mg/kg/injection, schedule: Q01DX005 (ip), vehicle: Klucel (hydroxypropylcellulose) (HPC) 100 % of control | [3] 112 % of control and 97 % of control

N#C/C(=N\NC(=O)c1ccccc1Cl)c1ccccc1Cl
inactive: [16] 97 % of control | [17] 106 % of control

O=C1/C(=C/c2cccnc2)SC(=S)N1Cc1ccco1
inactive: [9] 97 % of control | [10] 94 % of control | [11] 90 % of control

CN1CCC(O)(c2ccccc2)C(O)C1 (centres undefined)
inactive: [16] 95 % of control | [17] 93 % of control | dose: 200.0 mg/kg/injection, schedule: Q01DX005 (ip), vehicle: saline with Tween-80 90 % of control

O=C1C=CC(=O)C2=C1CCOC2c1ccccc1 (centres undefined)
inactive: [16] 91 % of control

CSc1cccc(NC(=O)Nc2c(C)n(C)n(-c3ccccc3)c2=O)c1
inactive: [6] 92 % of control | [7] 96 % of control | [8] 88 % of control

N#CC12CCCCC1CCC1(C2)OCCO1 (centres undefined)
inactive: [6] 111 % of control | [7] 100 % of control | [8] 108 % of control

NCC(=O)NC(CC(N)=O)C(=O)O (centres undefined) (H-Gly-[ξN]-OH)
inactive: [15] 119 % of control | dose: 100.0 mg/kg/injection, schedule: Q01DX009 (ip), vehicle: saline 109 % of control | dose: 200.0 mg/kg/injection, schedule: Q01DX009 (ip), vehicle: saline 114 % of control

ON=C1c2cc(Cl)ccc2-c2ccc(Cl)cc21
inactive: dose: 6.25 mg/kg/injection, schedule: Q01DX009 (ip), vehicle: saline 100 % of control | [13] 97 % of control | [14] 94 % of control | [15] 90 % of control

Cc1ccc2c(c1)C1(C)OC(C=CC1=O)O2 (centres undefined)
inactive: dose: 25.0 mg/kg/injection, schedule: Q04DX003 (ip), vehicle: Klucel (hydroxypropylcellulose) (HPC) 99 % of control and 119 % of control | dose: 50.0 mg/kg/injection, schedule: Q04DX003 (ip), vehicle: Klucel (hydroxypropylcellulose) (HPC) 98 % of control | [18] 123 % of control and 97 % of control | [19] 113 % of control

C=CCSc1nc2ccc(N=Cc3ccccc3O)cc2s1
inactive: [18] 88 % of control | [19] 91 % of control | dose: 400.0 mg/kg/injection, schedule: Q04DX003 (ip), vehicle: Klucel (hydroxypropylcellulose) (HPC) 92 % of control

C=C/C=C/NC(=O)N1CCCC1
inactive: dose: 100.0 mg/kg/injection, schedule: Q04DX002 (ip), vehicle: suspension in saline 102 % of control | dose: 200.0 mg/kg/injection, schedule: Q04DX002 (ip), vehicle: suspension in saline 102 % of control | dose: 400.0 mg/kg/injection, schedule: Q04DX002 (ip), vehicle: suspension in saline 105 % of control

CCO/C=C1/N=C(c2cc(OC)cc(OC)c2)OC1=O
inactive: dose: 15.0 mg/kg/injection, schedule: Q01DX005 (ip), vehicle: saline with Tween-80 104 % of control | dose: 30.0 mg/kg/injection, schedule: Q01DX005 (ip), vehicle: saline with Tween-80 101 % of control | [12] 90 % of control and 96 % of control | dose: 240.0 mg/kg/injection, schedule: Q01DX005 (ip), vehicle: saline with Tween-80 87 % of control

CC(=O)N(C(C)=O)c1cnc2c(nc3cc(C)ccn32)c1C
inactive: [1] 92 % of control | [2] 98 % of control

Nc1nc2c(c(=O)[nH]1)NC(CN(C(=O)CCCl)c1ccc(C(=O)NC(CCC(=O)O)C(=O)O)cc1)CN2 (centres undefined)
inactive: dose: 50.0 mg/kg/injection, schedule: Q01DX001 (ip), vehicle: alkali diluted with saline 101 % of control | dose: 100.0 mg/kg/injection, schedule: Q01DX001 (ip), vehicle: alkali diluted with saline 104 % of control | dose: 200.0 mg/kg/injection, schedule: Q01DX001 (ip), vehicle: alkali diluted with saline 101 % of control

CCc1nc(NCCCCCCCCNc2nc(C)c(-c3ccccc3O)c(CC)n2)nc(C)c1-c1ccccc1O
inactive: dose: 100.0 mg/kg/injection, schedule: Q04DX003 (ip), vehicle: saline 93 % of control | dose: 200.0 mg/kg/injection, schedule: Q04DX003 (ip), vehicle: saline 94 % of control | dose: 400.0 mg/kg/injection, schedule: Q04DX003 (ip), vehicle: saline 86 % of control

C/C=C/c1ccc(OC(C)C(=O)c2ccc3c(c2)OCO3)c(OC)c1 (centres undefined)
inactive: dose: 10.0 mg/kg/injection, schedule: Q01DX005 (ip), vehicle: Klucel (hydroxypropylcellulose) (HPC) 108 % of control | dose: 20.0 mg/kg/injection, schedule: Q01DX005 (ip), vehicle: Klucel (hydroxypropylcellulose) (HPC) 101 % of control | dose: 40.0 mg/kg/injection, schedule: Q01DX005 (ip), vehicle: Klucel (hydroxypropylcellulose) (HPC) 101 % of control

C=CC1(C)OC(=O)c2cc(C)c(OC)cc21 (centres undefined)
inactive: dose: 50.0 mg/kg/injection, schedule: Q01DX001 (ip), vehicle: saline with Tween-80 100 % of control | [1] 100 % of control | [2] 95 % of control | dose: 400.0 mg/kg/injection, schedule: Q01DX001 (ip), vehicle: saline with Tween-80 94 % of control

CCCCCC(O)C1C(=O)OC(C)C(O)/C=C/C=C/C=C/C=C/C=C(\C)C(O)C(O)C(O)CC(O)CC(O)CC(O)CC(O)CC1O (centres undefined)
inactive: dose: 0.5 mg/kg/injection, schedule: Q01DX010 (ip), vehicle: saline 100 % of control | dose: 1.0 mg/kg/injection, schedule: Q01DX010 (ip), vehicle: saline 100 % of control | dose: 2.0 mg/kg/injection, schedule: Q01DX010 (ip), vehicle: saline 100 % of control and 90 % of control | dose: 4.0 mg/kg/injection, schedule: Q01DX010 (ip), vehicle: saline 90 % of control | dose: 8.0 mg/kg/injection, schedule: Q01DX010 (ip), vehicle: saline 100 % of control

O=C(O)CCN1C(=O)c2ccccc2C1=O
inactive: dose: 100.0 mg/kg/injection, schedule: Q04DX003 (ip), vehicle: saline with Tween-80 100 % of control | dose: 200.0 mg/kg/injection, schedule: Q04DX003 (ip), vehicle: saline with Tween-80 100 % of control | dose: 400.0 mg/kg/injection, schedule: Q04DX003 (ip), vehicle: saline with Tween-80 95 % of control
